Measured values reported in patent US9890185B2, “Urea derivatives useful as kinase inhibitors” (Respivert Limited, priority 2013, dated 2018).

Assays:
GSK 3α = GSK 3α (Homo sapiens (Human), UniProt P49840); test: GSK 3α enzyme inhibition (FRET, Z-LYTE, Method 2); assay type: biochemical; settings: read-out: IC50 Values for Enzyme Inhibition, GSK3α
Outline: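 Recombinant human GSK3α was preincubated with compound (stocks 4, 0.4, 0.04 or 0.004 μg/mL) at RT, 2 hr for Method 1 and 105 min for Method 2. FRET peptide (8 μM stock) and ATP (40 μM stock) were added for 1 hr, then protease development for 1 hr. IC50 was taken from concentration–response curves.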

[1] = target: p38 MAPKα isoform (MAPK14) (Homo sapiens (Human), UniProt Q16539); test: p38 MAPKα enzyme inhibition (FRET, Z-LYTE, Method 2); assay type: biochemical
p38 MAPKα isoform (MAPK14), sequence (Q16539 whole entry, canonical isoform): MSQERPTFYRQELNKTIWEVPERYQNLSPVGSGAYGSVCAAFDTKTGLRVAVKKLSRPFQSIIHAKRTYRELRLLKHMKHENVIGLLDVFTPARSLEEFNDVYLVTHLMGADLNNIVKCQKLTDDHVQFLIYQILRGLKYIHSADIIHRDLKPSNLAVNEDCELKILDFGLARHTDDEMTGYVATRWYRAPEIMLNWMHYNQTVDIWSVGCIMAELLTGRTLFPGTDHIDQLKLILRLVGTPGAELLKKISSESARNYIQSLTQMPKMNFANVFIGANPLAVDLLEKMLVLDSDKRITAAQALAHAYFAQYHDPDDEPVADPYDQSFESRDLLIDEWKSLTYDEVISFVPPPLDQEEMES
Outline: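 Z-LYTE FRET: p38 MAPKα (80 ng/mL for Method 1, 200 ng/mL for Method 2, pre-dilution) preincubated 2 hr RT with compound (4–0.004 μg/mL solutions), activity read via MAPKAP-K2 phosphorylation after 1 hr RT and 1 hr protease development. Coumarin/fluorescein ratio gives phosphorylation; % inhibition versus uninhibited control, IC50 from concentration-response curve.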

PBMCs [2] = test: LPS-induced IL-8 release in PBMC cells (assay b); assay type: cell-based, human; settings: Homo sapiens, PBMC; LPS-stimulated PBMCs; read-out: IC50 Values for Inhibition of Cytokine Release, PBMCs IL-8
Outline: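 Cytokines (TNFα, IL-8) in supernatants were quantified by sandwich ELISA after a 24 h challenge with 1 ng/mL E. coli LPS at 37° C, 5% CO2. Healthy-donor PBMCs had been exposed to compound for 2 h beforehand. IC50 values were fitted from the concentration-response curves.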

d-U937 cells = test: Accumulation of β catenin in d-U937 cells (assay m); assay type: cell-based, human; settings: percentage relative to Reference Compound at 1 μg/mL
Outline: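 Read-out: colourimetric cell-based immunoassay for endogenous β-catenin (OD450 minus 655 reference), normalised to crystal violet absorbance at 595 nm. Test compound or vehicle was applied for 18 hr to U937 monocytes first differentiated with PMA (100 ng/mL) for 48–72 hr.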

PBMCs [3] = test: Cell mitosis assay in PBMCs (assay g); assay type: cell-based; settings: Homo sapiens, PBMC, test compound 5 μg/mL
Outline: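 Metaphase arrest with 0.1 μg/mL demecolcine during the final 2 hr of a 20 hr compound exposure, which follows 48 hr of 2% PHA stimulation of healthy-donor human PBMCs. Mitotic lymphocytes counted by flow cytometry (anti-phospho-histone 3 plus propidium iodide). Inhibition expressed relative to 0.5% DMSO.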

GSK 3α, sequence (P49840 whole entry): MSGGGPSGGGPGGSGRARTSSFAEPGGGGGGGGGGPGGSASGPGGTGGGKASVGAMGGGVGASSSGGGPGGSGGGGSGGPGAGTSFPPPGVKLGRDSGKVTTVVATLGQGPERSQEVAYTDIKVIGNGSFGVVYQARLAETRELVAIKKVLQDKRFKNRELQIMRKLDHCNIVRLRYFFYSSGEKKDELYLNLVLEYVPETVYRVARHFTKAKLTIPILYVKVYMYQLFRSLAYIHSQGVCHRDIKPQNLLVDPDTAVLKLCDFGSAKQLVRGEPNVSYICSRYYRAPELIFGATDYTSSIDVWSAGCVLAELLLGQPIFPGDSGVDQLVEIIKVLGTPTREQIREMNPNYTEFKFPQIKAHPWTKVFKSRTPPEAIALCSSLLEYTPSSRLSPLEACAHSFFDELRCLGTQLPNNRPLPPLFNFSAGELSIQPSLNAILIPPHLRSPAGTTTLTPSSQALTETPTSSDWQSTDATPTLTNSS

Structure (SMILES)	IC50 (GSK 3α)	IC50 [1]	IC50 (PBMCs [2])	% β-catenin induction (d-U937 cells; test compound 1 μg/mL)	% β-catenin induction (d-U937 cells; test compound 5 μg/mL)	% β-catenin induction (d-U937 cells; test compound 10 μg/mL)	inhibition at 5 µg/mL (PBMCs [3])
COc1c(NC(=O)Nc2ccc(Oc3ccnc(Nc4ccccc4)c3)c3ccccc23)cc(C(C)(C)C)cc1[S+](C)[O-] (racemic) [Example 12, 1-(5-(tert-Butyl)-2-methoxy-3-(methylsulfinyl)phenyl)-3-(4-((2-(phenylamino)pyridin-4-yl)oxy)naphthalen-1-yl)urea]	> 9900 nM	193 nM	3.6 nM	−0.5%	5.0%	6.0%	23.2%
COCCOCCOCCOc1cc(Nc2cc(Oc3ccc(NC(=O)Nc4cc(C(C)(C)C)cc(CS(C)(=O)=O)c4OC)c4ccccc34)ccn2)cc(OC)c1 [15(a), 1-(5-(tert-butyl)-2-methoxy-3-((methylsulfonyl)methyl)phenyl)-3-(4-((2-((3-methoxy-5-(2-(2-(2-methoxyethoxy)ethoxy)ethoxy)phenyl)amino)pyridin-4-yl)oxy)naphthalen-1-yl)urea]	> 12200 nM	177 nM	3.6 nM	−4.0%	−5.0%	−3.0%	56.8%
COc1c(NC(=O)Nc2ccc(Oc3ccnc(Nc4cccnc4)c3)c3ccccc23)cc(C(C)(C)C)cc1P(C)(C)=O [15(ad), 1-(5-(tert-butyl)-3-(dimethylphosphoryl)-2-methoxyphenyl)-3-(4-((2-(pyridin-3-ylamino)pyridin-4-yl)oxy)naphthalen-1-yl)urea]	1600 nM	181 nM	3.7 nM	12.0%	36.0%	49.0%	31%
COc1cc(F)cc(Nc2cc(Oc3ccc(NC(=O)Nc4cc(C(C)(C)C)cc(P(C)(C)=O)c4OC)c4ccccc34)ccn2)c1 [15(an), 1-(5-(tert-butyl)-3-(dimethylphosphoryl)-2-methoxyphenyl)-3-(4-((2-((3-fluoro-5-methoxyphenyl)amino)pyridin-4-yl)oxy)naphthalen-1-yl)urea]	> 15200 nM	344 nM	2.7 nM	1.5%	11.5%	13.5%	50.3%
COc1c(NC(=O)Nc2ccc(Oc3ccnc(Nc4cnn(C)n4)n3)c3ccccc23)cc(C(C)(C)C)cc1P(C)(C)=O [15(x), 1-(5-(tert-butyl)-3-(dimethylphosphoryl)-2-methoxyphenyl)-3-(4-((2-((2-methyl-2H-1,2,3-triazol-4-yl)amino)pyrimidin-4-yl)oxy)naphthalen-1-yl)urea]	4660 nM	219 nM	6.1 nM	7.0%	4.0%	4.0%	18.4%
COc1c(CC(N)=O)cc(C(C)(C)C)cc1NC(=O)Nc1ccc(Oc2ccnc(NCc3ccccn3)c2)c2ccccc12 [38(d), 2-(5-(tert-Butyl)-2-methoxy-3-(3-(4-((2-((pyridin-2-ylmethyl)amino)pyridin-4-yl)oxy)naphthalen-1-yl)ureido)phenyl)acetamide]	2240 nM	13 nM	4.5 nM	2.5%	19.5%	30.0%	28.1%
COc1c(CC(N)=O)cc(C(C)(C)C)cc1NC(=O)Nc1ccc(Oc2ccnc(Nc3cc(C)cc(C)c3)c2)c2ccccc12 [38(f), 2-(5-(tert-Butyl)-3-(3-(4-((2-((3,5-dimethylphenyl)amino)pyridin-4-yl)oxy)naphthalen-1-yl)ureido)-2-methoxyphenyl)acetamide]	14800 nM	226 nM	5.5 nM	2.0%	3.3%	8.3%	37.8%
CNC(=O)Cc1cc(C(C)(C)C)cc(NC(=O)Nc2ccc(Oc3ccnc(Nc4cccc(OC)c4)c3)c3ccccc23)c1OC [38(h), 2-(5-(tert-Butyl)-2-methoxy-3-(3-(4-((2-((3-methoxyphenyl)amino)pyridin-4-yl)oxy)naphthalen-1-yl)ureido)phenyl)-N-methylacetamide]	> 14600 nM	123 nM	2.7 nM	1.5%	4.0%	6.0%	30.3%
COc1cc(Nc2cc(Oc3ccc(NC(=O)Nc4cc(C(C)(C)C)cc(CC(N)=O)c4OC)c4ccccc34)ccn2)ccn1 [38(k), 2-(5-(tert-Butyl)-2-methoxy-3-(3-(4-((2-((2-methoxypyridin-4-yl)amino)pyridin-4-yl)oxy)naphthalen-1-yl)ureido)phenyl)acetamide]	2620 nM	152 nM	2.1 nM	10.5%	39.5%	52.0%	70.5%
COc1cc(CO)cc(Nc2cc(Oc3ccc(NC(=O)Nc4cc(C(C)(C)C)cc(CC(N)=O)c4OC)c4ccccc34)ccn2)c1 [38(m), 2-(5-(tert-Butyl)-3-(3-(4-((2-((3-(hydroxymethyl)-5-methoxyphenyl)amino)pyridin-4-yl)oxy)naphthalen-1-yl)ureido)-2-methoxyphenyl)acetamide]	3380 nM	48 nM	2 nM	3.0%	23.0%	37.0%	77.4%
COc1cncc(Nc2cc(Oc3ccc(NC(=O)Nc4cc(C(C)(C)C)cc(CC(N)=O)c4OC)c4ccccc34)ccn2)c1 [38(n), 2-(5-(tert-butyl)-2-methoxy-3-(3-(4-((2-((5-methoxypyridin-3-yl)amino)pyridin-4-yl)oxy)naphthalen-1-yl)ureido)phenyl)acetamide]	1200 nM	43 nM	1.4 nM	2.0%	21.0%	23.5%	66.1%
COc1c(CC(N)=O)cc(C(C)(C)C)cc1NC(=O)Nc1ccc(Oc2ccnc(Nc3ccn(C)n3)c2)c2ccccc12 [38(o), 2-(5-(tert-Butyl)-2-methoxy-3-(3-(4-((2-((1-methyl-1H-pyrazol-3-yl)amino)pyridin-4-yl)oxy)naphthalen-1-yl)ureido)phenyl)acetamide]	1050 nM	9 nM	1.3 nM	13.0%	38.0%	35.0%	83.2%
COc1cc(Nc2cc(Oc3ccc(NC(=O)Nc4cc(C(C)(C)C)cc([S+](C)[O-])c4OC)c4ccccc34)ccn2)ccc1C(=O)NCCN1CCOCC1 (stereo not drawn) [Example 72, 4-((4-((4-(3-(5-(tert-Butyl)-2-methoxy-3-(methylsulfinyl)phenyl)ureido)naphthalen-1-yl)oxy)pyridin-2-yl)amino)-2-methoxy-N-(2-morpholinoethyl)benzamide]	3660 nM	32 nM	2.1 nM	–	–	–	36.8%
COc1cc(Nc2cc(Oc3ccc(NC(=O)Nc4cc(C(C)(C)C)cc(CC(N)=O)c4OC)c4ccccc34)ccn2)ccc1C(=O)NCC(CO)(CO)CO [Example 73, 4-((4-((4-(3-(3-(2-Amino-2-oxoethyl)-5-(tert-butyl)-2-methoxyphenyl)ureido)naphthalen-1-yl)oxy)pyridin-2-yl)amino)-N-(3-hydroxy-2,2-bis(hydroxymethyl)propyl)-2-methoxybenzamide]	1980 nM	31 nM	1.5 nM	–	–	–	19.8%
COCCOCCOCCNC(=O)c1cc(Nc2cc(Oc3ccc(NC(=O)Nc4cc(C(C)(C)C)cc(CNC(=O)CN(C)C)c4OC)c4ccccc34)ccn2)cc(OC)c1 [Example 77, 3-((4-((4-(3-(5-(tert-Butyl)-3-((2-(dimethylamino)acetamido)methyl)-2-methoxyphenyl)ureido)naphthalen-1-yl)oxy)pyridin-2-yl)amino)-5-methoxy-N-(2-(2-(2-methoxyethoxy)ethoxy)ethyl)benzamide]	2620 nM	20 nM	0.9 nM	–	–	–	58.7%
